Key:
Test in all cases: relative viability (nuclei count vs DMSO), 5 days (fraction); higher = more cells survive
VX-702 + Navitoclax = compound: NC(=O)c1ccc(N(C(N)=O)c2c(F)cccc2F)nc1-c1ccc(F)cc1F [VX-702] + CC1(C)CCC(c2ccc(Cl)cc2)=C(CN2CCN(c3ccc(C(=O)NS(=O)(=O)c4ccc(N[C@H](CCN5CCOCC5)CSc5ccccc5)c(S(=O)(=O)C(F)(F)F)c4)cc3)CC2)C1 [Navitoclax] (partner 0.5 µM)
Summary of the method: (§1)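 For relative viability, nuclei counts in treated wells were divided by those in vehicle wells. Lung cancer cell lines had been pin-tool dosed in 1536-well plates the day after seeding and cultured for 5 days, then fixed and stained in one step (final 0.05% Triton X-100, 1% formaldehyde, 1 ug/ml Hoechst) and imaged at 4×. Doses were one drug alone or a fixed anchor-drug dose plus five library-drug doses (not always all listed) in √10 steps, and values are duplicate-plate medians.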

Dabrafenib + Decitabine = compound: CC(C)(C)c1nc(-c2cccc(NS(=O)(=O)c3c(F)cccc3F)c2F)c(-c2ccnc(N)n2)s1 [Dabrafenib] + Nc1ncn([C@H]2C[C@H](O)[C@@H](CO)O2)c(=O)n1 [Decitabine] (partner 2 µM)
Summary of the method: as §1

Dabrafenib + Foretinib = compound: CC(C)(C)c1nc(-c2cccc(NS(=O)(=O)c3c(F)cccc3F)c2F)c(-c2ccnc(N)n2)s1 [Dabrafenib] + COc1cc2c(Oc3ccc(NC(=O)C4(C(=O)Nc5ccc(F)cc5)CC4)cc3F)ccnc2cc1OCCCN1CCOCC1 [Foretinib] (partner 0.25 µM)
Summary of the method: as §1

VX-702 + Decitabine = compound: NC(=O)c1ccc(N(C(N)=O)c2c(F)cccc2F)nc1-c1ccc(F)cc1F [VX-702] + Nc1ncn([C@H]2C[C@H](O)[C@@H](CO)O2)c(=O)n1 [Decitabine] (partner 2 µM)
Summary of the method: as §1

Cell Line | relative viability (VX-702 + Navitoclax; first compound 0.02 µM) | relative viability (VX-702 + Navitoclax; first compound 0.2 µM) | relative viability (VX-702 + Navitoclax; first compound 0.6325 µM) | relative viability (VX-702 + Navitoclax; first compound 2 µM) | relative viability (Dabrafenib + Decitabine; first compound 0.003 µM) | relative viability (Dabrafenib + Decitabine; first compound 0.009487 µM) | relative viability (Dabrafenib + Decitabine; first compound 0.03 µM) | relative viability (Dabrafenib + Decitabine; first compound 0.09487 µM) | relative viability (Dabrafenib + Decitabine; first compound 0.3 µM) | relative viability (Dabrafenib + Foretinib; first compound 0.003 µM) | relative viability (Dabrafenib + Foretinib; first compound 0.009487 µM) | relative viability (Dabrafenib + Foretinib; first compound 0.03 µM) | relative viability (Dabrafenib + Foretinib; first compound 0.09487 µM) | relative viability (Dabrafenib + Foretinib; first compound 0.3 µM) | relative viability (VX-702 + Decitabine; first compound 0.02 µM) | relative viability (VX-702 + Decitabine; first compound 0.2 µM) | relative viability (VX-702 + Decitabine; first compound 0.6325 µM) | relative viability (VX-702 + Decitabine; first compound 2 µM)
NCI-H1651 | 0.933 | 0.96 | 0.982 | 1.27 | 0.603 | 0.679 | 0.618 | 0.512 | 0.243 | 0.725 | 0.728 | 0.631 | 0.799 | 0.761 | 0.571 | 0.573 | 0.649 | 0.615
NCI-H1666 | 0.883 | 0.884 | 0.843 | 1.02 | 0.69 | 0.813 | 0.789 | 0.674 | 0.751 | 0.907 | 0.944 | 0.951 | 0.969 | 1.1 | 0.655 | 0.691 | 0.751 | 0.536
NCI-H1734 | 0.814 | 0.695 | 0.685 | 0.743 | – | 0.456 | 0.471 | 0.488 | 0.337 | – | 0.963 | 0.73 | 0.811 | 0.965 | 0.493 | 0.484 | 0.477 | 0.47
NCI-H1755 | 1.08 | 0.971 | 1.05 | 1.04 | 0.654 | 0.706 | 0.667 | 0.722 | 0.583 | 0.879 | 0.894 | 0.767 | 0.876 | 0.911 | 0.699 | 0.732 | 0.703 | 0.797
NCI-H1793 | 0.601 | 0.405 | 0.497 | 0.542 | – | 0.531 | – | 0.521 | 0.418 | – | 0.93 | – | – | 0.598 | 0.545 | – | 0.449 | 0.458
NCI-H1915 | 0.766 | 0.725 | 0.849 | 0.916 | 0.264 | 0.262 | 0.256 | 0.255 | 0.243 | 1.2 | 1.08 | 1.09 | 0.87 | 0.949 | 0.275 | 0.284 | 0.258 | 0.268
NCI-H1944 | 1.04 | 1.03 | 1.15 | 0.973 | 0.45 | 0.46 | 0.436 | 0.467 | 0.364 | 0.832 | 0.887 | 0.948 | 0.827 | 0.85 | 0.431 | 0.437 | 0.46 | 0.431
NCI-H1975 | 1.09 | 1.06 | 1.08 | 1.23 | 0.373 | 0.413 | 0.355 | 0.4 | 0.312 | 0.965 | 0.907 | 0.922 | 0.849 | 0.957 | 0.367 | 0.35 | 0.344 | 0.362
NCI-H1993 | 0.805 | 0.874 | 0.896 | 0.835 | 0.564 | 0.719 | 0.538 | 0.68 | 0.618 | 0.762 | 0.852 | 0.64 | 0.71 | 0.901 | 0.529 | 0.603 | 0.54 | 0.578
NCI-H2009 | 1.18 | 1.2 | 1.25 | 1.47 | 0.359 | 0.38 | 0.397 | 0.339 | 0.358 | 1.21 | 1.18 | 1.24 | 0.995 | 0.911 | 0.392 | 0.435 | 0.454 | 0.399
NCI-H2023 | 1.02 | 1.01 | 0.89 | 1.03 | 0.236 | 0.222 | 0.196 | 0.214 | 0.135 | 0.866 | 0.922 | 0.796 | 0.877 | 1.02 | 0.23 | 0.219 | 0.211 | 0.231
NCI-H2085 | 1.21 | 1.24 | 1.12 | 1.2 | 0.552 | 0.575 | 0.559 | 0.592 | 0.518 | 0.984 | 0.975 | 0.981 | 0.899 | 1.08 | 0.568 | 0.575 | 0.627 | 0.524
NCI-H2087 | 0.975 | 0.838 | 0.92 | 1.05 | – | 0.305 | 0.352 | 0.278 | 0.213 | – | 1.04 | 0.988 | 0.959 | 1.09 | 0.288 | 0.242 | 0.254 | 0.294
NCI-H2126 | 0.832 | 0.814 | 0.779 | 0.698 | 0.578 | 0.591 | 0.57 | 0.653 | 0.609 | 1.15 | 1.22 | 1.15 | 1 | 1.43 | 0.547 | 0.567 | 0.566 | 0.595
NCI-H2170 | 0.625 | 0.372 | 0.665 | 0.607 | 0.47 | 0.472 | 0.423 | 0.42 | 0.36 | 1.03 | 0.539 | 0.961 | 1.01 | 1.11 | 0.444 | 0.415 | 0.466 | 0.486
NCI-H2347 | 0.887 | 0.712 | 0.756 | 0.792 | – | 0.657 | 0.598 | 0.706 | 0.616 | – | 1.01 | – | – | 0.932 | 0.643 | 0.606 | 0.683 | 0.639
NCI-H2405 | 0.813 | 0.773 | 0.89 | 1.2 | – | 0.742 | 0.529 | 0.692 | 0.574 | – | 0.985 | – | 0.949 | 1.07 | 0.727 | 0.709 | 0.709 | 0.759
NCI-H3122 | 1.07 | 1.05 | 1.04 | 1.02 | 0.567 | 0.404 | 0.397 | 0.429 | 0.373 | 1.04 | 0.959 | 0.935 | 0.904 | 0.97 | 0.435 | 0.371 | 0.417 | 0.435
PC-3 [JPC-3] | 0.756 | 0.846 | 0.844 | 0.853 | – | 0.865 | 0.872 | 0.812 | 0.804 | 1 | 1.09 | 1.1 | 0.997 | 1.01 | 0.804 | 0.888 | 0.888 | 0.853
PC-14 | 1.06 | 1.01 | 1.04 | 1.03 | 0.172 | 0.276 | 0.24 | 0.219 | 0.147 | 0.861 | 0.972 | 0.933 | 0.979 | 0.958 | 0.199 | 0.261 | 0.221 | 0.218
RERF-LC-KJ | 1.18 | 1.1 | 0.83 | 0.869 | 0.792 | 0.724 | 0.655 | 0.731 | 0.705 | 0.854 | 0.859 | 0.845 | 0.935 | 1.09 | 0.762 | 0.759 | 0.66 | 0.685
SK-LU-1 | 0.7 | 0.757 | 0.66 | 1.32 | – | 0.657 | 0.569 | 0.571 | 0.484 | – | 0.848 | 0.633 | 0.64 | 0.757 | 0.625 | 0.61 | 0.653 | 0.702
SK-MES-1 | 1.24 | 1.12 | 1.22 | 1.44 | 0.362 | 0.441 | 0.405 | 0.382 | 0.338 | 0.653 | 0.905 | 1 | 0.796 | 0.995 | 0.387 | 0.388 | 0.308 | 0.297
SW 1573 | 0.938 | 0.809 | 0.831 | 0.909 | 0.448 | 0.545 | 0.488 | 0.589 | 0.357 | 0.757 | 0.992 | 0.806 | 1.01 | 1.05 | 0.518 | 0.434 | 0.412 | 0.437
UMC-11 | 0.274 | 0.293 | 0.303 | 0.359 | 0.707 | 0.603 | 0.558 | 0.383 | 0.434 | 1.13 | 1.12 | 1.06 | 0.984 | 1.13 | 0.515 | 0.616 | 0.643 | 0.791

From the supplement of paper PMC10307832
